Data taken from US5206220A (Research Corporation Technologies, Inc., priority 1991, dated 1993).
Values after ≈ are worked out from the molar mass of the structure shown. Values joined by “and” are separate entries in the source; they are usually repeats but may differ in a detail not shown here. Equal entries are not always repeated. Where two headings read alike, the source gives them in different places. Peptide text beside a SMILES is read from it.

Assays:
cells = conditions: cited from earlier work
[1] = Stability of γ-GluTyr in a TPN amino acid solution; type: physicochemical; conditions: equal volumes 1.8 mM γ-GluTyr and Aminosyn-PF 10%, pH 5.5, ultrafiltered, room temperature, nine-month period, HPLC
Description: B. In a TPN amino acid solution: Equal volumes of 1.8 mM γ-GluTyr and Aminosyn-PF 10% (Abbott Laboratories) were mixed and the pH was adjusted to 5.5. The mixture thus contained similar concentrations of the peptide and of several amino acids, including phenylalanine and histidine. A sample was taken for analysis, and the remainder of the solution was sterilized by ultrafiltration and stored at room temperature (typical storage conditions for TPN amino acid solutions). Samples for analysis were also taken at intervals over a nine-month period. All samples were analyzed by HPLC as described above.

[2] = Clearance of γ-GluTyr from plasma after i.v. injection; type: in vivo, mice
Description: Injections of 20 μl of 140 mM γ-GluTyr (2.8 μmol) were made in the external jugular vein of 30-40 g mice. The amount of γ-GluTyr was measured in the plasma at 10 min and 60 min post-injection in each animal.

[3] = Distribution of γ-GluTyr in urine and plasma; type: in vivo, mice
Description: Urine was collected from mice injected with γ-GluTyr to determine whether or not the peptide was excreted into the urine. Mice were anesthetized with pentobarbital and then injected with 20 μl 140 mM γ-GluTyr (2.8 μmol). No urine was voided during the 60-min experiment, during which time the mice remained anesthetized. At the end of the experiment, the urinary bladders were tied off, removed and blood was collected from the heart for analysis. At the end of 60 min, a maximum of 0.13% of the injected γ-GluTyr was excreted in the urine whereas the plasma contained 12-25 μM γ-GluTyr. If these mice are assumed to have a total plasma volume of 4 ml, then only about 4% of the injected γ-GluTyr remained in the plasma at 60 min post-injection.

[4] = target: T1, bovine kidney γ-GTase (Sigma Type II) (Bos taurus, UniProt G3N2D8); assay: In vitro release of tyrosine from γ-GluTyr by γ-glutamyl transpeptidase; type: biochemical; conditions: γ-GluTyr in Aminosyn-PF 10%, pH 7.4, monitored by HPLC
T1 construct: the solution treated with bovine kidney γ-GTase (Sigma Type II) at pH 7.4; purchased Sigma Type II; host or cells: bovine kidney (tissue-derived)
Description: The most likely route for metabolic degradation of γ-GluTyr involves the enzyme, γ-glutamyl transpeptidase (γ-GTase), a widely distributed enzyme in mammalian tissues. In an in vitro test of this hypothesis, γ-GluTyr was added to Aminosyn-PF 10% and the solution treated with bovine kidney γ-GTase (Sigma Type II) at pH 7.4.

γ-GTase = target: T2, γ-GTase (Mus musculus, UniProt Q60928); assay: Effects of inhibiting γ-GTase with acivicin in mice injected with γ-GluTyr; type: in vivo; conditions: for Tyr (plasma) / Phe (plasma) / γ-GluTyr (plasma): 2.8 μmol γ-GluTyr i.v., 10 min postinjection; for γ-GluTyr excreted: lost in the urine at 60 min postinjection
T2 construct: from tissue; host or cells: live mice (whole animal; kidney named as a site of high activity)
Description: To test the role of γ-GTase in degradation of γ-GluTyr in vivo an additional experiment was conducted. […] Control mice received saline rather than acivicin prior to intravenous injection of 2.8 μmol of γ-GluTyr. In test mice, an intraperitoneal injection of acivicin was made 90 min prior to the injection of 2.8 μmol γ-GluTyr. Plasma was sampled after 10 min and 60 min, and urine was collected after 60 min.
The kidney is generally unable to prevent the loss of intact peptides in the urine. Instead, peptides are hydrolyzed to free amino acids, which can then be salvaged by absorption into the bloodstream. […] When γ-GTase is inhibited by acivicin, unhydrolyzed peptide should be lost in the urine. The data in Table 5 are consistent with a role for γ-GTase in the hydrolysis of γ-GluTyr to prevent its excretion in the urine. When this enzyme is inhibited by acivicin, the amount of unhydrolyzed peptide which appears in the urine in 60 min increases markedly over peptide found in the urine of control mice.

[5] = rats, after 24 h, cited from earlier work
[6] = storage in aqueous solution, diketopiperazine formation; cited from earlier work
[7] = rats, 0.5 mmol/kg; same value at longer times; cited from earlier work
[8] = γ-GluGln stability in Aminosyn-PF 10%; type: physicochemical; conditions: sterile, room temperature, one month, 4.5 and 9 months
Description: (§1) Sci. 18:233-236] or accomplished by standard amino acid analysis techniques.
To determine the stability of γ-GluGln under typical storage conditions, γ-GluGln was added to Aminosyn-PF 10% under sterile conditions and left at room temperature.

[9] = Clearance of γ-GluGln from plasma, release of plasma glutamine; type: in vivo, mice; conditions: for Glutamine Concentration (plasma), individual mice / Glutamine Concentration (plasma), Mean + Standard Error: 29 μmoles γ-GluGln i.v.; for Glutamine Concentration (plasma), Mean + Standard Error: N = 6
Description: as §1
Mice were injected with 29 μmoles of γ-GluGln via the external jugular vein. Control animals were injected with an equal volume of saline. Blood was sampled at 10 min. and at 60 min after injection.

[10] = cited from earlier work
[11] = cited from earlier work; remark: listed apart in the source
[12] = cited from earlier work; remark: listed apart in the source
[13] = administered for TPN; cited from earlier work
[14] = mice, 20 μL 140 mM γ-GluTyr, 10 min postinjection

T2 sequence (Q60928 1-379 limits assumed): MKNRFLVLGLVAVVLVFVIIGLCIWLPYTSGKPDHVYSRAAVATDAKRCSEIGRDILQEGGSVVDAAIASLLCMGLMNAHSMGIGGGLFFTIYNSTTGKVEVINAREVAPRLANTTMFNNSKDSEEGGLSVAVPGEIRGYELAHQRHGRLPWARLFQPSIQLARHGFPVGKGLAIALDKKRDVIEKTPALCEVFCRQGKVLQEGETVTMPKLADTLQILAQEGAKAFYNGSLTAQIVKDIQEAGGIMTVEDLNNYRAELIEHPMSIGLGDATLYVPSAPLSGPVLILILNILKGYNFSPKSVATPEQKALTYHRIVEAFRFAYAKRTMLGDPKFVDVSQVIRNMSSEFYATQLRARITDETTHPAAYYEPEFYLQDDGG
T2 sequence (Q60928 380-568 limits assumed): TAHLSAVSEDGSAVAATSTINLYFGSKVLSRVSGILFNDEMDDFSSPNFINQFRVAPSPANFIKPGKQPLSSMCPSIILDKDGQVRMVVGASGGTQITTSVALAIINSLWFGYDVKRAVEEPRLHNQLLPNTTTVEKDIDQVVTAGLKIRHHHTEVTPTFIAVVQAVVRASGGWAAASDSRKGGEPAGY
T1 sequence (G3N2D8 1-379 limits assumed): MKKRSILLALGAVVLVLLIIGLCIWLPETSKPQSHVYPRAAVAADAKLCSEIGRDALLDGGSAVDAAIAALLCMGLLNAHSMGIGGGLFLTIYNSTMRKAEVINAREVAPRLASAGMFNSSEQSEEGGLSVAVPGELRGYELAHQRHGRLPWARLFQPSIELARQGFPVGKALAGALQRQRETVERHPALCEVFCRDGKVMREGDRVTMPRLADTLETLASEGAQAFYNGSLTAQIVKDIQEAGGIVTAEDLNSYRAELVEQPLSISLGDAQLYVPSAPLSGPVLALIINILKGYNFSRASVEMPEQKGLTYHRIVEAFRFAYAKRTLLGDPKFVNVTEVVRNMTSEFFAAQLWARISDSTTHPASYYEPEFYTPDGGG
T1 sequence (G3N2D8 380-568 limits assumed): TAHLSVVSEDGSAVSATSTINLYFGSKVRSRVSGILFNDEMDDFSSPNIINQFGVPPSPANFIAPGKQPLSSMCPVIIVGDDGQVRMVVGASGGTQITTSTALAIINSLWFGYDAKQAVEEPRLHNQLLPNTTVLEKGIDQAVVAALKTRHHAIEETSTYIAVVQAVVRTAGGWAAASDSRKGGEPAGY

## NC(CCC(=O)NC(CSSCC(N)C(=O)O)C(=O)O)C(=O)O [γ-Glu(Cys)2, γ-L-glutamyl-L-cystine]
cells
  transport into cells: are transported

## N[C@@H](CCC(=O)N[C@@H](Cc1ccc(O)cc1)C(=O)O)C(=O)O [γ-GluTyr, gamma-L-glutamyl-L-tyrosine]
[1]
  levels of γ-GluTyr and tyrosine during storage: unchanged
[2]; mice 30-40 g, 20 μl of 140 mM (2.8 μmol) external jugular vein, 10 min to 60 min post-injection
  clearance of γ-GluTyr from plasma: 2.2 to 2.6 µM/min
[2]; [14]
  Plasma Phe: 89 ± 8 µM
  Plasma Tyr: 126 ± 14 µM
[2]; mice, 40 μl of 140 mM γ-GluTyr, between 5 and 10 min post-injection
  increase of plasma concentration of tyrosine: 32%
[2]; mice, 40 μl of 140 mM γ-GluTyr, between 10 and 60 min post-injection
  fall of plasma concentration of tyrosine: 32%
[2]; mice, 40 μl of 140 mM, external jugular vein
  clearance rate of γ-GluTyr from plasma: 6.8 µM/min
[3]; 60 min post-injection
  peptide hydrolyzed and available as free tyrosine and glutamic acid: at least 96%
[3]; 60 min post-injection, assumed total plasma volume of 4 ml
  injected γ-GluTyr remaining in the plasma: about 4%
[3]; anesthetized mice, 2.8 μmol i.v., 60 min
  plasma γ-GluTyr: 12 to 25 µM
[3]; anesthetized mice, 2.8 μmol i.v., at the end of 60 min
  injected γ-GluTyr excreted in the urine: ≤ 0.13%
[3]; previous studies
  partitioning into red blood cells: not partitioned into red blood cells
[4]
  release of tyrosine from γ-GluTyr by the enzyme: released tyrosine
γ-GTase; acivicin + (2 mg/30 g mouse i.p. 90 min before)
  Tyr (plasma): 96 ± 1 µM
γ-GTase; acivicin +
  Phe (plasma): 96 ± 6 µM
  γ-GluTyr (plasma): 247 ± 17 µM
  γ-GluTyr excreted: 16-48 % of total
γ-GTase; acivicin - (saline)
  Tyr (plasma): 126 ± 14 µM
γ-GTase; acivicin -
  Phe (plasma): 89 ± 8 µM
  γ-GluTyr (plasma): 112 ± 15 µM
  γ-GluTyr excreted: 0.05-0.19 % of total

## N[C@@H](CCC(=O)N[C@@H](CS)C(=O)NCC(=O)O)C(=O)O [GSH, gamma-glutamyl-cysteinylglycine, reference compound]
cells
  transport into cells: does not appear to be transported into cells

## C[C@H](N)C(=O)N[C@@H](Cc1ccc(O)cc1)C(=O)O [AlaTyr, L-alanyl-L-tyrosine] (H-Ala-Tyr-OH)
[5]; 0.5 mmol/kg/day
  plasma tyrosine levels: unchanged
[5]; 2 mmol/kg/day
  plasma tyrosine levels: increased two-fold
[6]
  stability in aqueous solution: unstable in aqueous solution

## NCC(=O)N[C@@H](Cc1ccc(O)cc1)C(=O)O [GlyTyr, L-glycyl-L-tyrosine] (H-Gly-Tyr-OH)
[7]
  rise of plasma tyrosine levels compared with AlaTyr: did not increase as rapidly
[6]
  stability in aqueous solution: unstable during storage in aqueous solution

## NC(=O)CC[C@H](NC(=O)CC[C@H](N)C(=O)O)C(=O)O [γ-GluGln, gamma-L-glutamyl-L-glutamine]
[8]
  stability of γ-GluGln under typical storage conditions: remained stable
[9]; 10 min
  Glutamine Concentration (plasma), individual mice: 675 µM and 762 µM and 614 µM and 693 µM and 681 µM and 770 µM
  Glutamine Concentration (plasma), Mean + Standard Error: 699 ± 24 µM
[9]; 60 min
  Glutamine Concentration (plasma), individual mice: 565 µM and 586 µM and 457 µM and 198 µM and 555 µM and 629 µM
  Glutamine Concentration (plasma), Mean + Standard Error: 498 ± 64 µM
[9]; 29 μmoles γ-GluGln via external jugular vein, 10 min
  mice with γ-GluGln detected in the plasma: three of six
[9]; mice not pretreated with acivicin
  appearance of γ-GluGln in the urine: did not appear in the urine

## NCC(=O)N[C@@H](CCC(N)=O)C(=O)O [GlyGln, glycylglutamine] (H-Gly-Gln-OH)
[6]
  stability in aqueous solution: unstable during prolonged storage in aqueous solution

## Cl.N[C@@H](CS)C(=O)O [Cysteine-HCl, Cysteine-hydrochloride]
[10]; infants on TPN supplemented with L-cysteine-HCL
  plasma ratio of cysteine to methionine (Cys/Met): 0.6
[10]; some treated low-birth-weight infants
  adverse effect in TPN: implicated in the production of acidosis

## N[C@@H](CCC(=O)N[C@@H](CSSC[C@H](NC(=O)CC[C@H](N)C(=O)O)C(=O)O)C(=O)O)C(=O)O [(γ-GluCys)2, N,N'-bis(γ-glutamyl)cystine]
cells
  transport into cells: are transported

## N[C@@H](CSSC[C@H](N)C(=O)O)C(=O)O [Cystine]
[11]
  solubility in water: 1 mg/dL (≈ 41.6 µM)

## CC(=O)N[C@@H](CS)C(=O)O [NAcCys, N-acetylcysteine]
[12]; four hours after administration (from 2)
  NAcCys levels (plasma): 488 µmol/L
[12]; four hours after administration of 5 g cysteine in a 200 mg/ml solution as NAcCys (basal 207)
  plasma levels of cysteine: 134 µmol/L
[12]; within 4 h
  administered NAcCys excreted in the urine: 11%

## C[C@H](N)C(=O)N[C@@H](CCC(N)=O)C(=O)O [AlaGln, alanylglutamine] (H-Ala-Gln-OH)
[6]
  stability in aqueous solution: unstable during prolonged storage in aqueous solution

## CC(=O)N[C@@H](CSSC[C@H](NC(C)=O)C(=O)O)C(=O)O [N,N'-bis-acetylcystine]
[13]
  urinary losses: large urinary losses
